Test results: patent publication US20020137929A1, “1 - (3-heterocyclylphenyl) isothiourea, -isourea, -guanidine and -amidine herbicidal agents” (Intellectual Property Department, BASF Aktiengesellschaft, priority 1998, published 2002)

Columns and labels:
ABUTH (Velvetleaf) = test: Preemergence herbicidal evaluation; format: in vivo, Abutilon theophrasti; conditions: rated 4-5 weeks after treatment; for ABUTH rating: preemergence, 0-9 scale
How it was run: (§1)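 Visual 0-9 rating vs control (stand, vigor, malformation, size, chlorosis, overall appearance), scored 4-5 wk after spraying. Seeded soil cups were treated preemergence with compound in aqueous acetone, ~0.0156-0.500 kg/ha equivalent.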

[1] = test system: TRZAWR (Wheat, Winter, cv Riband); test: Preemergence herbicidal evaluation; format: in vivo, Triticum aestivum; conditions: rated 4-5 weeks after treatment; for TRZAWR rating: preemergence, 0-9 scale
How it was run: as §1

[2] = test system: ECHORC (Watergrass (Calif.)); test: Preemergence weed control under flooded paddy conditions; format: in vivo, Echinochloa oryzoides; conditions: rated 3-4 weeks after treatment
How it was run: (§2)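 Herbicidal effect is scored visually on a 0-9 scale against an untreated control, three to four weeks after compounds are pipetted into the flood water (1.5 to 3 cm deep) over seeds planted in silt loam at 0.5 cm depth. Rates: about 0.0313 to 0.500 kg/ha.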

CYPIR (Rice Flatsedge) = test: as above; format: in vivo, Cyperus iria; conditions: rated 3-4 weeks after treatment
How it was run: as §2

[3] = test system: SAGPY (Arrowhead (Pygmaea)); test: as above; format: in vivo, Sagittaria pygmaea; conditions: rated 3-4 weeks after treatment
How it was run: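 First, seeds or propagules go into the top 0.5 cm of silt loam; next, water is held 1.5 to 3 cm over the soil; then compound (50/50 acetone/water) is pipetted into it at about 0.0313 to 0.500 kg/ha; finally plants are rated visually 0-9 after three to four weeks.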

ORYSAT (Rice, Tebonnet) [4] = test: Rice tolerance to post-transplant applications, flooded paddy conditions (Table III); format: in vivo, Oryza sativa, (L.) Tebonnet
How it was run: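 Injury scored 0-9 by eye against untreated control, judging stand, vigor, malformation, size and chlorosis, three to four weeks after treatment. Compound in 50/50 aqueous/acetone, about 0.0313 to 0.500 kg/ha, was applied to paddy water (1.5 to 3 cm depth) three days after transplanting paired ten-day-old Tebonnet rice seedlings.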

MOOVA (Monochoria) = test: Postemergence weed control under flooded paddy conditions; format: in vivo, Monochoria vaginalis; conditions: postemergence weeds, rated 3 to 4 weeks after treatment
How it was run: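 Herbicidal effect is judged by eye on a 0–9 scale versus control, 3–4 weeks after dosing. Dosing is into flood water kept 1.5–3 cm over the soil, at about 0.0313–0.500 kg/ha in aqueous/acetone 50/50 v/v, on 3–5 cm weeds and 1.5–2.5-leaf rice seedlings.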

ORYSAT (Rice, Tebonnet) [5] = test: Rice tolerance to post-transplant applications, flooded paddy conditions (Table IV); format: in vivo, Oryza sativa, (L.) Tebonnet
How it was run: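 Flood-water application, about 0.0313–0.500 kg/ha a.i. in aqueous/acetone 50/50 v/v; water depth 1.5–3 cm throughout. Weeds 3–5 cm, rice 1.5–2.5 leaf. Greenhouse; 0–9 visual rating vs control at 3–4 wk.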

SMILES: Cn1c(C(F)(F)F)cc(=O)n(-c2cc(/N=C3/SC(CC(=O)O)C(=O)N3CC(=O)O)c(Cl)cc2F)c1=O (centres unmarked) [Compound 61, 2-{{2-Chloro-5-[3,6-dihydro-3-methyl-2,6-dioxo-4-(trifluoromethyl)-1(2H)-pyrimidinyl]-4-fluorophenyl}imino}-4-oxo-3,5-thiazolidinediacetic acid]
- Preemergence herbicidal rating ABUTH (ABUTH (Velvetleaf); rate 0.1250 kg/ha): 0.0
- Preemergence herbicidal rating ABUTH (ABUTH (Velvetleaf); rate 0.2500 kg/ha): 1.0
- Preemergence herbicidal rating TRZAWR ([1]; rate 0.1250 kg/ha): 0.0
- Preemergence herbicidal rating TRZAWR ([1]; rate 0.2500 kg/ha): 1.0
- ECHORC herbicidal effect rating ([2]; 0.2500 kg/ha): 0.0
- CYPIR herbicidal effect rating (CYPIR (Rice Flatsedge); 0.2500 kg/ha): 0.0
- SAGPY herbicidal effect rating ([3]; 0.2500 kg/ha): 0.0
- ORYSAT herbicidal effect rating (rice tolerance) (ORYSAT (Rice, Tebonnet) [4]; in vivo): 0.0
- Herbicidal rating MOOVA (MOOVA (Monochoria); Rate 0.2500 kg/ha): 0.0
- Herbicidal rating ORYSAT (rice tolerance) (ORYSAT (Rice, Tebonnet) [5]; in vivo): 0.0

SMILES: CN1C(=O)C(CC(=O)O)SC1=Nc1cc(-n2c(=O)cc(C(F)(F)F)n(C)c2=O)c(F)cc1Cl (centres unmarked) [Compound 63, 2-{{2-Chloro-5-[3,6-dihydro-3-methyl-2,6-dioxo-4-(trifluoromethyl)-1(2H)-pyrimidinyl]-4-fluoro-phenyl}imino}-3-methyl-4-oxo-5-thiazolidineacetic acid]
- Preemergence herbicidal rating ABUTH (ABUTH (Velvetleaf); rate 0.0156 kg/ha): 1.0
- Preemergence herbicidal rating ABUTH (ABUTH (Velvetleaf); rate 0.0313 kg/ha): 6.0
- Preemergence herbicidal rating ABUTH (ABUTH (Velvetleaf); rate 0.0625 kg/ha): 9.0
- Preemergence herbicidal rating ABUTH (ABUTH (Velvetleaf); rate 0.1250 kg/ha): 9.0
- Preemergence herbicidal rating ABUTH (ABUTH (Velvetleaf); rate 0.2500 kg/ha): 9.0
- Preemergence herbicidal rating TRZAWR ([1]; rate 0.0156 kg/ha): 0.0
- Preemergence herbicidal rating TRZAWR ([1]; rate 0.0313 kg/ha): 0.0
- Preemergence herbicidal rating TRZAWR ([1]; rate 0.0625 kg/ha): 1.0
- Preemergence herbicidal rating TRZAWR ([1]; rate 0.1250 kg/ha): 6.0
- Preemergence herbicidal rating TRZAWR ([1]; rate 0.2500 kg/ha): 7.0
- ECHORC herbicidal effect rating ([2]; 0.0313 kg/ha): 0.0
- ECHORC herbicidal effect rating ([2]; 0.0625 kg/ha): 0.0
- ECHORC herbicidal effect rating ([2]; 0.1250 kg/ha): 5.0
- ECHORC herbicidal effect rating ([2]; 0.2500 kg/ha): 5.0
- CYPIR herbicidal effect rating (CYPIR (Rice Flatsedge); 0.0313 kg/ha): 2.0
- CYPIR herbicidal effect rating (CYPIR (Rice Flatsedge); 0.0625 kg/ha): 6.0
- CYPIR herbicidal effect rating (CYPIR (Rice Flatsedge); 0.1250 kg/ha): 7.0
- CYPIR herbicidal effect rating (CYPIR (Rice Flatsedge); 0.2500 kg/ha): 7.0
- SAGPY herbicidal effect rating ([3]; 0.0313 kg/ha): 4.0
- SAGPY herbicidal effect rating ([3]; 0.0625 kg/ha): 7.0
- SAGPY herbicidal effect rating ([3]; 0.1250 kg/ha): 9.0
- SAGPY herbicidal effect rating ([3]; 0.2500 kg/ha): 9.0
- ORYSAT herbicidal effect rating (rice tolerance) (ORYSAT (Rice, Tebonnet) [4]; in vivo): 3.0
- Herbicidal rating MOOVA (MOOVA (Monochoria); Rate 0.0313 kg/ha): 9.0
- Herbicidal rating MOOVA (MOOVA (Monochoria); Rate 0.0625 kg/ha): 9.0
- Herbicidal rating MOOVA (MOOVA (Monochoria); Rate 0.1250 kg/ha): 9.0
- Herbicidal rating MOOVA (MOOVA (Monochoria); Rate 0.2500 kg/ha): 9.0
- Herbicidal rating ORYSAT (rice tolerance) (ORYSAT (Rice, Tebonnet) [5]; in vivo): 3.0

SMILES: C=CCN1C(=O)C(CC(=O)OCCF)SC1=Nc1cc(-n2c(=O)cc(C(F)(F)F)n(C)c2=O)c(F)cc1Cl (centres unmarked) [Compound 86, 2-Fluoroethyl 3-allyl-2-{{2-chloro-5-[3,6-dihydro-3-methyl-2,6-dioxo-4-(trifluoromethyl)-1(2H)-pyrimidinyl]-4-fluorophenyl}imino}-4-oxo-5-thiazolidineacetate]
- ABUTH rating (ABUTH (Velvetleaf); 0.0156 kg/ha): 9.0
- ABUTH rating (ABUTH (Velvetleaf); 0.0313 kg/ha): 9.0
- ABUTH rating (ABUTH (Velvetleaf); 0.0625 kg/ha): 9.0
- ABUTH rating (ABUTH (Velvetleaf); 0.1250 kg/ha): 9.0
- ABUTH rating (ABUTH (Velvetleaf); 0.2500 kg/ha): 9.0
- ABUTH rating (ABUTH (Velvetleaf); 0.5000 kg/ha): 9.0
- TRZAWR rating ([1]; 0.0156 kg/ha): 0.0
- TRZAWR rating ([1]; 0.0313 kg/ha): 0.0
- TRZAWR rating ([1]; 0.0625 kg/ha): 0.0
- TRZAWR rating ([1]; 0.1250 kg/ha): 0.0
- TRZAWR rating ([1]; 0.2500 kg/ha): 2.0
- TRZAWR rating ([1]; 0.5000 kg/ha): 6.0
- ECHORC herbicidal effect rating ([2]; 0.0313 kg/ha): 5.0
- ECHORC herbicidal effect rating ([2]; 0.0625 kg/ha): 6.0
- ECHORC herbicidal effect rating ([2]; 0.1250 kg/ha): 9.0
- ECHORC herbicidal effect rating ([2]; 0.2500 kg/ha): 9.0
- CYPIR herbicidal effect rating (CYPIR (Rice Flatsedge); 0.0313 kg/ha): 3.0
- CYPIR herbicidal effect rating (CYPIR (Rice Flatsedge); 0.0625 kg/ha): 7.0
- CYPIR herbicidal effect rating (CYPIR (Rice Flatsedge); 0.1250 kg/ha): 8.0
- CYPIR herbicidal effect rating (CYPIR (Rice Flatsedge); 0.2500 kg/ha): 9.0
- SAGPY herbicidal effect rating ([3]; 0.0313 kg/ha): 5.0
- SAGPY herbicidal effect rating ([3]; 0.0625 kg/ha): 9.0
- SAGPY herbicidal effect rating ([3]; 0.1250 kg/ha): 9.0
- SAGPY herbicidal effect rating ([3]; 0.2500 kg/ha): 9.0
- ORYSAT herbicidal effect rating (rice tolerance) (ORYSAT (Rice, Tebonnet) [4]; 0.0313 kg/ha, post-transplant rice, flooded paddy, rated 3-4 weeks after treatment): 3.0
- ORYSAT herbicidal effect rating (rice tolerance) (ORYSAT (Rice, Tebonnet) [4]; 0.0625 kg/ha, post-transplant rice, flooded paddy, rated 3-4 weeks after treatment): 4.0
- ORYSAT herbicidal effect rating (rice tolerance) (ORYSAT (Rice, Tebonnet) [4]; 0.1250 kg/ha, post-transplant rice, flooded paddy, rated 3-4 weeks after treatment): 4.0
- ORYSAT herbicidal effect rating (rice tolerance) (ORYSAT (Rice, Tebonnet) [4]; 0.2500 kg/ha, post-transplant rice, flooded paddy, rated 3-4 weeks after treatment): 5.0
- Herbicidal rating MOOVA (MOOVA (Monochoria); Rate 0.0313 kg/ha): 9.0
- Herbicidal rating MOOVA (MOOVA (Monochoria); Rate 0.0625 kg/ha): 9.0
- Herbicidal rating MOOVA (MOOVA (Monochoria); Rate 0.1250 kg/ha): 9.0
- Herbicidal rating MOOVA (MOOVA (Monochoria); Rate 0.2500 kg/ha): 9.0
- Herbicidal rating ORYSAT (rice tolerance) (ORYSAT (Rice, Tebonnet) [5]; Rate 0.0313 kg/ha, flooded paddy, post-transplant rice, rated 3 to 4 weeks after treatment): 3.0
- Herbicidal rating ORYSAT (rice tolerance) (ORYSAT (Rice, Tebonnet) [5]; Rate 0.0625 kg/ha, flooded paddy, post-transplant rice, rated 3 to 4 weeks after treatment): 4.0
- Herbicidal rating ORYSAT (rice tolerance) (ORYSAT (Rice, Tebonnet) [5]; Rate 0.1250 kg/ha, flooded paddy, post-transplant rice, rated 3 to 4 weeks after treatment): 4.0
- Herbicidal rating ORYSAT (rice tolerance) (ORYSAT (Rice, Tebonnet) [5]; Rate 0.2500 kg/ha, flooded paddy, post-transplant rice, rated 3 to 4 weeks after treatment): 5.0
